# Results: ChEMBL document CHEMBL3856187, “Cyclin Dependent Kinase 9 Inhibitors for Cancer Therapy” (J Med Chem, 2016)
# pIC50, pKi: −log10 of the molar value.
# What was measured:
# [1] = target: CDK9/Cyclin K (Homo sapiens) (UniProt P50750+O75909); experiment: Inhibition of human CDK9/cyclin K by radiometric assay relative to control; assay type: protein-complex assay; parameters: concentration or dose not given beside the values; details: concentration not given here
# [2] = target: CDK9/cyclin T1 (Homo sapiens) (UniProt O60563+P50750); experiment: Inhibition of human CDK9/cyclin T1 by radiometric assay relative to control; assay type: protein-complex assay; parameters: concentration or dose not given beside the values; details: concentration not given here
# [3] = Antiproliferative activity against human HeLa cells after 4 days by crystal violet staining based assay; assay type: functional, cell-based; details: 96 h
# [4] = Cytotoxicity against human HeLa cells assessed as decrease in cell viability after 72 hrs by MTT assay; assay type: toxicity, cell-based
# CDK9/cyclin T1 [5] = target: T1, CDK9/cyclin T1 (Homo sapiens, UniProt P50750); experiment: Inhibition of human His6-tagged CDK9/cyclin T1 expressed in baculovirus infected sf9 cells using GST-CTD as substrate after 10 mins in presence of [gamma-32P]ATP by SDS-PAGE analysis
# T1 sequence (O60563 whole entry): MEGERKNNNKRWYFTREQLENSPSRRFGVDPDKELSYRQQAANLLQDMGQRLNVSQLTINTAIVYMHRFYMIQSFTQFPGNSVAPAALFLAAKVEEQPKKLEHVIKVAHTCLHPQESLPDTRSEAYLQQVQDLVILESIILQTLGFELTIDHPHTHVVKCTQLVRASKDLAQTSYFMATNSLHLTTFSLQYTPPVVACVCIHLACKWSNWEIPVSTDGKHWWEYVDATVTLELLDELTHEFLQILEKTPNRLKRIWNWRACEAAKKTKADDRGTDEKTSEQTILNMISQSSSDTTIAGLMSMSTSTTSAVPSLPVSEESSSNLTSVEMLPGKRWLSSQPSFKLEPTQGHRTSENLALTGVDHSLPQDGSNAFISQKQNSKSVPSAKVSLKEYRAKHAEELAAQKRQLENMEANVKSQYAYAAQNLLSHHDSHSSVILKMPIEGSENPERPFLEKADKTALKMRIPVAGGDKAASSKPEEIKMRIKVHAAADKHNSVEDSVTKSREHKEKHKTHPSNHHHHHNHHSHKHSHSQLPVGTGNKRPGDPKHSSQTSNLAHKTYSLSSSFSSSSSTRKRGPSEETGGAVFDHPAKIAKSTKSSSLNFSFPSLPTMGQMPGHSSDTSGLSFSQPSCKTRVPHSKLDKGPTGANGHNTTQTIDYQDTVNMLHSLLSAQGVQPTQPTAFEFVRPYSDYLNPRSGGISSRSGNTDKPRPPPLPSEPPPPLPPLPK
# T1 sequence (P50750 whole entry): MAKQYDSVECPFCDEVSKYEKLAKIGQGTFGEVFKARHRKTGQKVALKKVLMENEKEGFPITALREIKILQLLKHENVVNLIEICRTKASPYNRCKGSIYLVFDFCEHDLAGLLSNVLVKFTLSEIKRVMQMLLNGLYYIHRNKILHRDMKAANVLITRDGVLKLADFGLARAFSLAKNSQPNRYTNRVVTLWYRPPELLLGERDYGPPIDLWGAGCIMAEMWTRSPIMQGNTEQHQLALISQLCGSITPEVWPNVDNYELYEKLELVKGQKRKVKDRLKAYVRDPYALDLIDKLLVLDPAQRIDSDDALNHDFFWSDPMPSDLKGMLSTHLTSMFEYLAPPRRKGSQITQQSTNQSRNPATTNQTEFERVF
# CDK2/Cyclin A2 = CDK2/Cyclin A2 (Homo sapiens, UniProt P24941); experiment: Inhibition of human full length C-terminal His6-tagged CDK2/N-terminal GST-tagged cyclin A using histone H1 as substrate after 10 mins by [gamma-32P]ATP based binding assay; assay type: protein-complex assay
# [6] = target: Cyclin-dependent kinase 5/CDK5 activator 1 (Homo sapiens, UniProt Q00535); experiment: Inhibition of recombinant human His/GST-tagged CDK5/p35 expressed in baculovirus infected Sf9 insect cells using Rb-CTF as substrate after 80 mins in presence of [33P]ATP by microbeta scintillation counting analysis
# Sequence of Cyclin-dependent kinase 5/CDK5 activator 1 (Q00535 whole entry): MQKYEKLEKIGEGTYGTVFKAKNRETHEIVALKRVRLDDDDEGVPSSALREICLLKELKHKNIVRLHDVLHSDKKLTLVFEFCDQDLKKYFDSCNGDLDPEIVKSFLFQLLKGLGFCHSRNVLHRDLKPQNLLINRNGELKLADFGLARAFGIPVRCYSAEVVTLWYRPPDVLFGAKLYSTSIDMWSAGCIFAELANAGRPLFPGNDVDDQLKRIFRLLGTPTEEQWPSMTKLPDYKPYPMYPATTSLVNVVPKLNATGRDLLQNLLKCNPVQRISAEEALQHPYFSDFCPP
# Sequence of Cyclin-dependent kinase 5/CDK5 activator 1 (Q15078 whole entry, further chain): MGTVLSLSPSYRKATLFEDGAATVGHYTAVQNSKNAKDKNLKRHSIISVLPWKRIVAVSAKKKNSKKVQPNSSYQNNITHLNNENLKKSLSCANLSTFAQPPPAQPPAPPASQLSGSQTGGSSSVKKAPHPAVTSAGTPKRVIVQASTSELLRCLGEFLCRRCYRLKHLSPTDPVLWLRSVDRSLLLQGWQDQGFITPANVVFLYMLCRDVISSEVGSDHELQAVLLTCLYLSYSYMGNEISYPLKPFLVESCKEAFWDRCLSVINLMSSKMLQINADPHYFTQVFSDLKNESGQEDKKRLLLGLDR
# CDK2/Cyclin A1 = CDK2/Cyclin A1 (Homo sapiens, UniProt P24941); experiment: Inhibition of recombinant human His/GST-tagged CDK2/Cyclin A expressed in baculovirus infected Sf9 cells using Histone H1 as substrate after 80 mins in presence of [33P]ATP by microbeta scintillation counting analysis
# [7] = target: Cyclin-dependent kinase 1/cyclin B1 (Homo sapiens, UniProt P06493); experiment: Inhibition of recombinant human CDK1/cyclin B expressed in baculovirus infected Sf9 insect cells after 80 mins in presence of [33P]ATP by microbeta scintillation counting analysis
# Sequence of Cyclin-dependent kinase 1/cyclin B1 (P06493 whole entry): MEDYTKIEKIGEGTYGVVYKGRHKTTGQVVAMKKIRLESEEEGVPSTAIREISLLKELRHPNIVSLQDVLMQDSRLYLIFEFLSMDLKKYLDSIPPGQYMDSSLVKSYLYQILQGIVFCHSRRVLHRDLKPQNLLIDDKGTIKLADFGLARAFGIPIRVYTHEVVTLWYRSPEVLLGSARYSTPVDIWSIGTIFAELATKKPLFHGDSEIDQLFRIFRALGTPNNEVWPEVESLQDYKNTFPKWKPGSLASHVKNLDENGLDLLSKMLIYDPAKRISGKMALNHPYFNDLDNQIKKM
# Sequence of Cyclin-dependent kinase 1/cyclin B1 (P14635 whole entry, further chain): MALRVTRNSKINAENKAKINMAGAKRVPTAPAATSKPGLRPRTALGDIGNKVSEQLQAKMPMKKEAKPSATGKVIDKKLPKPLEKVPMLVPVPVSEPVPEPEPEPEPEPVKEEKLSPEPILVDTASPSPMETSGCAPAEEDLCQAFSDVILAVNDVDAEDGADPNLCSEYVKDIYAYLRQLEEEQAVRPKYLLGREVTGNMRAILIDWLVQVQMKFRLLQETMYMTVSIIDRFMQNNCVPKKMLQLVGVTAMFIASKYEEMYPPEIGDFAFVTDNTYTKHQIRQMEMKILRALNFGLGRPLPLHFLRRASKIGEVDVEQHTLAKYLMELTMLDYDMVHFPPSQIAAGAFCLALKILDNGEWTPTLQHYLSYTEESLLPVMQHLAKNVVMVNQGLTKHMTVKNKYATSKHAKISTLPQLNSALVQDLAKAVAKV
# CDK3/Cyclin E [8] = target: T2, CDK3/Cyclin E (Homo sapiens, UniProt Q00526); experiment: Inhibition of recombinant human CDK3/cyclin E expressed in baculovirus infected Sf9 insect cells after 80 mins in presence of [33P]ATP by microbeta scintillation counting analysis
# T2 sequence (P24864 whole entry): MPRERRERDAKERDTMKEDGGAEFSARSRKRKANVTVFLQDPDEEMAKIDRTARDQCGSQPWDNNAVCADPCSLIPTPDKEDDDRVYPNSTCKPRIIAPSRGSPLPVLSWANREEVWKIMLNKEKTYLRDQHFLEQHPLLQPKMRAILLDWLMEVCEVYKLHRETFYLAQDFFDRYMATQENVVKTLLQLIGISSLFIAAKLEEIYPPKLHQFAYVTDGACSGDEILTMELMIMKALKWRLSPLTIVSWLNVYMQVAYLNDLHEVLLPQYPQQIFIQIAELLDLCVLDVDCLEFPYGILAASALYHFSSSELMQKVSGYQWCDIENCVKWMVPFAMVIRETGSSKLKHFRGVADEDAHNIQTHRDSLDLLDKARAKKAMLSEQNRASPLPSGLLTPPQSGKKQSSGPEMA
# T2 sequence (Q00526 whole entry): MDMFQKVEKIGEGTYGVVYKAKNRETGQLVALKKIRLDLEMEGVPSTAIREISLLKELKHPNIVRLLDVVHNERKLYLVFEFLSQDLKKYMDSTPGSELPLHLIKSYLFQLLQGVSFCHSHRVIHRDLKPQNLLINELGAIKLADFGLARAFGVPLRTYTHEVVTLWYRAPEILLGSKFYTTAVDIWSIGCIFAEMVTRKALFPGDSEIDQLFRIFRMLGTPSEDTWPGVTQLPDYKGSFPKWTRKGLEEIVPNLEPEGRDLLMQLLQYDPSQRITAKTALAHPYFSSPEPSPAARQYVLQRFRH
# [9] = Inhibition of CDK6/cyclin D (unknown origin); parameters: species or system Homo sapiens
# CDK8/Cyclin C = CDK8/Cyclin C (Homo sapiens, UniProt P49336); experiment: Inhibition of CDK8/cyclin C (unknown origin) using RBER-CHKStide as substrate after 60 mins in presence of 33P-ATP by microbeta scintillation counting analysis; assay type: protein-complex assay
# CDK7/Cyclin H/MNAT1 [10] = target: T3, CDK7/Cyclin H/MNAT1 (Homo sapiens, UniProt P50613); experiment: Inhibition of recombinant human full length C-terminal His6-tagged CDK7/cyclin H/N-terminal GST-tagged MAT1 expressed in baculovirus infected Sf21 insect cells using CDK7/9ptide as substrate after 60 mins in presence of 33P-ATP by microbeta scintillation counting analysis
# T3 sequence (P51946 whole entry): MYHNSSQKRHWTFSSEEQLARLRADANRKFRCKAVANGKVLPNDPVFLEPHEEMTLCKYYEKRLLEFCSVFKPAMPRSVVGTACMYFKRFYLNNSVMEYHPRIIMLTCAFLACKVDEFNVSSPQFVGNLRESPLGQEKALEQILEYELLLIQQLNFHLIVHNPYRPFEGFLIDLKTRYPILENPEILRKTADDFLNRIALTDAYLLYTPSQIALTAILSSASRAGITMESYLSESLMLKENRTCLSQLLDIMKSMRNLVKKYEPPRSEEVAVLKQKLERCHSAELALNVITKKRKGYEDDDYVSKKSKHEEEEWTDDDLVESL
# T3 sequence (P50613 whole entry): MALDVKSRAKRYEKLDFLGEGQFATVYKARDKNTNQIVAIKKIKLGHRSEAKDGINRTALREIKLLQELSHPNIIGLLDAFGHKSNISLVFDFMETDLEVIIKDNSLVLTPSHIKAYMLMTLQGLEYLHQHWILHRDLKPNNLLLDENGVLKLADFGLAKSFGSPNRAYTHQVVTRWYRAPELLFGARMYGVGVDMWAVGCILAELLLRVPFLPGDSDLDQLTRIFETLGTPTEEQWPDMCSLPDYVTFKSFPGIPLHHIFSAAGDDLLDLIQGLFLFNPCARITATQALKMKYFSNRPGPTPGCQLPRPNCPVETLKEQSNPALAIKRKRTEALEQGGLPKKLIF
# T3 sequence (P51948 whole entry, further chain): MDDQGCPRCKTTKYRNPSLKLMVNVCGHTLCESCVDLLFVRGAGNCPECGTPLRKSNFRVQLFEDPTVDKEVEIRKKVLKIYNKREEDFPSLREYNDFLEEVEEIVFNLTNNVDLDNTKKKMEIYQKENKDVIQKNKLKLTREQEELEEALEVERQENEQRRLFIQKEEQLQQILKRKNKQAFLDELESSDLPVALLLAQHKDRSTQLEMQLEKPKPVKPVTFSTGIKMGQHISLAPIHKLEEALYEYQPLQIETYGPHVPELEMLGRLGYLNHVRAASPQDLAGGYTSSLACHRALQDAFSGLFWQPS
# CDK9/cyclin T1 [11] = target: T1, CDK9/cyclin T1; experiment: Inhibition of recombinant human full length C-terminal His6-tagged CDK9/cyclin T1 expressed in baculovirus infected Sf21 insect cells using 5TAMRA-cdk7tide as substrate after 4.5 hrs by IMAP assay
# [12] = Inhibition of M-phase starfish oocytes CDK1/cyclin B after 30 mins by [gamma-33P]ATP based scintillation counting analysis; parameters: species or system Asteroidea
# [13] = target: Receptor-type tyrosine-protein kinase FLT3 (Homo sapiens, UniProt P36888, D835Y); experiment: Inhibition of human recombinant N-terminal GST-tagged FLT3 D835Y mutant expressed in baculovirus infected Sf21 insect cells using abltide as substrate
# [14] = target: Cyclin-dependent kinase 1 (Homo sapiens, UniProt P06493); experiment: Inhibition of CDK1 (unknown origin)
# Sequence of Cyclin-dependent kinase 1 (P06493 whole entry): as the sequence (P06493 whole entry) above
# [15] = target: T4, Cyclin-dependent kinase 5 (Homo sapiens, UniProt Q00535); experiment: Inhibition of human GST-tagged CDK5
# T4 sequence (Q00535 whole entry): as the sequence (Q00535 whole entry) above
# CDK3/Cyclin E [16] = target: T2, CDK3/Cyclin E; experiment: Inhibition of recombinant human full length C-terminal His6-tagged CDK3/N-terminal GST-tagged cyclin E expressed in baculovirus infected Sf21 insect cells using Histone H1 as substrate
# CDK7/Cyclin H/MNAT1 [17] = target: T3, CDK7/Cyclin H/MNAT1; experiment: Inhibition of recombinant human full length C-terminal His6-tagged CDK7/cyclin H/N-terminal GST-tagged MAT1 expressed in baculovirus infected Sf21 insect cells using cdk7 substrate peptide
# [18] = target: Cyclin-dependent kinase 9 (Homo sapiens, UniProt P50750); experiment: Inhibition of human CDK9 (unknown origin)
# Sequence of Cyclin-dependent kinase 9 (P50750 whole entry): as the sequence (P50750 whole entry) above
# [19] = target: Cyclin-dependent kinase 4 (Homo sapiens, UniProt P11802); experiment: Inhibition of CDK4 (unknown origin)
# [20] = target: T4, Cyclin-dependent kinase 5; experiment: Inhibition of CDK5 (unknown origin)
# [21] = target: Cyclin-dependent kinase 2 (Homo sapiens, UniProt P24941); experiment: Binding affinity to full length human CDK2 (1 to 298 residues) expressed in bacterial expression system by KINOMEscan competition assay
# [22] = target: Cyclin-dependent kinase 3 (Homo sapiens, UniProt Q00526); experiment: Inhibition of CDK3 (unknown origin)
smiles,measurement,setting,value
Nc1nc(Nc2ccc(S(N)(=O)=O)cc2)nn1C(=S)Nc1c(F)cccc1F,inhibition,[1],> 75%
same,inhibition,[2],> 75%
CS(=O)(=O)Cc1cccc(Nc2ncnc(-c3ccc(F)cc3OCc3cccc(C(F)(F)F)c3)n2)c1,pIC50,[3],5.89
CN1CC[C@H](c2c(O)cc(O)c3c(=O)cc(-c4ccc(C(F)(F)F)cc4)oc23)[C@H](O)C1,CC50 at 72 h,[4],1200 nM
same,pIC50,CDK9/cyclin T1 [5],7.72
same,pIC50,CDK2/Cyclin A2,6.52
COc1cc(F)ccc1-c1ccnc(NC(=O)[C@H]2CCC[C@@H](NC(C)=O)C2)c1,pIC50,[6],5.97 to 7.03
same,pIC50,CDK2/Cyclin A1,5.97 to 7.03
same,pIC50,[7],5.97 to 7.03
same,pIC50,CDK3/Cyclin E [8],5.97 to 7.03
O=C(NC1CCNCC1)c1n[nH]cc1NC(=O)c1c(Cl)cccc1Cl [AT-7519],pKi,[9],6.18
CC(C)c1c2cc(-c3ccnc(N[C@H]4CC[C@H](NC5CCOCC5)CC4)n3)ccc2nn1C,pIC50,CDK8/Cyclin C,7.80
same,pIC50,CDK7/Cyclin H/MNAT1 [10],6.61
Clc1cnc(NC2CCCC2)cc1-c1cnc(N2CCOCC2)c(NCC2CCOCC2)c1,pIC50,CDK9/cyclin T1 [11],5.46
CN[C@H]1C[C@@H]2O[C@@](C)(C3c4ccccc4-c4c5c(c6c(c43)C2c2ccccc2-6)C(=O)NC5=O)[C@H]1OC (stereo partly drawn),inhibition,[1],> 75%
same,inhibition,[2],> 75%
NCCCNc1cc(-c2cncc(NCC3CCOCC3)c2)c(Cl)cn1,pIC50,CDK9/cyclin T1 [11],5.73
COc1ccnc2[nH]cc(-c3ccnc(N)n3)c12 [MERIOLIN 3],pIC50,[12],6.77
CN1CC[C@H](c2c(O)cc(O)c3c(=O)cc(-c4ccccc4)oc23)[C@H](O)C1,CC50 at 72 h,[4],190 nM
same,pIC50,CDK9/cyclin T1 [5],8.05
same,pIC50,CDK2/Cyclin A2,6.71
OCCNc1cc(-c2cncc(NCc3cccc(F)c3)c2)c(Cl)cn1,pIC50,CDK9/cyclin T1 [11],8.10
O=C1Cc2c([nH]c3ccc([N+](=O)[O-])cc23)-c2ccccc2N1,inhibition,[1],> 75%
same,inhibition,[2],> 75%
CN1CC[C@H](c2c(O)cc(O)c3c(=O)cc(-c4ccccc4F)oc23)[C@H](O)C1,CC50 at 72 h,[4],274 nM
same,pIC50,CDK9/cyclin T1 [5],8.55
same,pIC50,CDK2/Cyclin A2,6.45
O=C1Nc2ccc3ncsc3c2/C1=C/c1c[nH]cn1,inhibition,[1],> 75%
same,inhibition,[2],> 75%
C=Cc1ccc(-c2cc(=O)c3c(O)cc(O)c([C@H]4CCN(C)C[C@H]4O)c3o2)cc1,CC50 at 72 h,[4],219 nM
same,pIC50,CDK9/cyclin T1 [5],8.02
same,pIC50,CDK2/Cyclin A2,6.69
CN1C/C=C/CCOc2cccc(c2)-c2ccnc(n2)Nc2cccc(c2)C1 [ZOTIRACICLIB],pIC50,[13],7.68
same,pIC50,[14],7.82 to 8.52
same,pIC50,[15],7.82 to 8.52
same,pIC50,CDK3/Cyclin E [16],7.82 to 8.52
same,pIC50,CDK7/Cyclin H/MNAT1 [17],7.82 to 8.52
COc1ccccc1-c1cc(Nc2ccc(F)c(NS(C)(=O)=O)c2)ncn1,pKi,[18],7.77
same,pKi,[14],< 6.00
same,pKi,[19],< 6.00
same,pKi,[20],< 6.00
same,pKi,[21],< 6.00
same,pKi,[22],< 6.00
